Data reported in ChEMBL document CHEMBL1201862, “PubChem BioAssay data set” (2004).
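1) Cells in 96-well plates. 2) Compound, 48 h, 5 concentrations. 3) Linear interpolation between surrounding doses. 4) Unreached endpoint = highest concentration. GI50 = concentration required for 50% inhibition of growth.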 Active and inactive are the calls of the source. Cut-off read from the data, not from the text of the source: active = GI50 up to about 1.1 µM and inactive = higher.

Experiments:
Assay in all cases: NCI-60 cell line screen, 48 h
[1] = tested on: EKVX
[2] = tested on: U-251
[3] = tested on: MDA-MB-435
[4] = tested on: SF-295
[5] = tested on: KM12
[6] = tested on: OVCAR-5
[7] = tested on: SK-MEL-5
[8] = tested on: M14
[9] = tested on: SR
[10] = tested on: MOLT-4
[11] = tested on: SK-MEL-2
[12] = tested on: HL-60
[13] = tested on: HCT-116
[14] = tested on: NCI/ADR-RES
[15] = tested on: LOX IMVI
[16] = tested on: UO-31
[17] = tested on: RPMI-8226
[18] = tested on: TK-10
[19] = tested on: HCT-15
[20] = tested on: HOP-62
[21] = tested on: OVCAR-3
[22] = tested on: K562
[23] = tested on: DU-145
[24] = tested on: NCI-H23
[25] = tested on: RXF 393
[26] = tested on: 786-0
[27] = tested on: SNB-75
[28] = tested on: HCC 2998
[29] = tested on: CCRF-CEM
[30] = tested on: UACC-62
[31] = tested on: A498
[32] = tested on: HOP-92
[33] = tested on: MCF7
[34] = tested on: OVCAR-4
[35] = tested on: NCI-H226
[36] = tested on: PC-3
[37] = tested on: BT-549
[38] = tested on: NCI-H460
[39] = tested on: SK-OV-3
[40] = tested on: ACHN
[41] = tested on: IGROV-1
[42] = tested on: SNB-19
[43] = tested on: T47D
[44] = tested on: SW-620
[45] = tested on: OVCAR-8
[46] = tested on: A549
[47] = tested on: UACC-257
[48] = tested on: COLO 205
[49] = tested on: SK-MEL-28
[50] = tested on: SF-268
[51] = tested on: SF-539
[52] = tested on: SN12C
[53] = tested on: Malme-3M
[54] = tested on: CAKI-1
[55] = tested on: MDA-MB-231
[56] = tested on: MDA-N
[57] = tested on: HT-29

CC(C)(C)c1cc2c(O)c(c1)COCc1cc(C(C)(C)C)cc(c1O)COCc1cc(C(C)(C)C)cc(c1O)COC2
GI50 [1]: > 100 µM (inactive) | GI50 [2]: > 100 µM (inactive) | GI50 [3]: > 100 µM (inactive) | GI50 [4]: > 100 µM (inactive) | GI50 [5]: 64.6 µM (inactive) | GI50 [6]: > 100 µM (inactive) | GI50 [7]: 99.3 µM (inactive) | GI50 [8]: 88.5 µM (inactive) | GI50 [9]: > 100 µM (inactive) | GI50 [10]: 48 µM (inactive) | GI50 [11]: > 100 µM (inactive) | GI50 [12]: 31.1 µM (inactive) | GI50 [13]: 97.3 µM (inactive) | GI50 [14]: > 100 µM (inactive) | GI50 [15]: 29.4 µM (inactive) | GI50 [16]: 35.5 µM (inactive) | GI50 [17]: 50.4 µM (inactive) | GI50 [18]: > 100 µM (inactive) | GI50 [19]: > 100 µM | GI50 [20]: > 100 µM (inactive) | GI50 [21]: > 100 µM (inactive) | GI50 [22]: > 100 µM (inactive) | GI50 [23]: 32.5 µM (inactive) | GI50 [24]: 46.1 µM (inactive) | GI50 [25]: 32.4 µM (inactive) | GI50 [26]: 19.1 µM (inactive) | GI50 [27]: 9.35 µM (inactive) | GI50 [28]: > 100 µM (inactive) | GI50 [29]: 59 µM (inactive) | GI50 [30]: > 100 µM (inactive) | GI50 [31]: 46.6 µM (inactive) | GI50 [32]: > 100 µM (inactive) | GI50 [33]: > 100 µM (inactive) | GI50 [34]: > 100 µM (inactive) | GI50 [35]: > 100 µM (inactive) | GI50 [36]: > 100 µM (inactive) | GI50 [37]: > 100 µM (inactive) | GI50 [38]: > 100 µM (inactive) | GI50 [39]: > 100 µM (inactive) | GI50 [40]: 63.2 µM (inactive) | GI50 [41]: > 100 µM (inactive) | GI50 [42]: 6.04 µM (inactive) | GI50 [43]: > 100 µM (inactive) | GI50 [44]: > 100 µM (inactive) | GI50 [45]: > 100 µM (inactive) | GI50 [46]: > 100 µM (inactive) | GI50 [47]: > 100 µM (inactive) | GI50 [48]: > 100 µM (inactive) | GI50 [49]: > 100 µM (inactive)

CC1CCCc2c(CC3CC(=O)NC(=O)C3)nc(N)nc21 (configuration not stated)
GI50 [1]: > 100 µM (inactive) | GI50 [2]: > 100 µM (inactive) | GI50 [3]: > 100 µM (inactive) | GI50 [4]: > 100 µM (inactive) | GI50 [5]: > 100 µM (inactive) | GI50 [6]: > 100 µM (inactive) | GI50 [7]: > 100 µM (inactive) | GI50 [50]: > 100 µM (inactive) | GI50 [8]: > 100 µM (inactive) | GI50 [9]: > 100 µM (inactive) | GI50 [51]: > 100 µM (inactive) | GI50 [10]: > 100 µM (inactive) | GI50 [11]: > 100 µM (inactive) | GI50 [12]: 2.21 µM (inactive) | GI50 [13]: > 100 µM (inactive) | GI50 [14]: > 100 µM (inactive) | GI50 [15]: > 100 µM (inactive) | GI50 [17]: > 100 µM (inactive) | GI50 [18]: > 100 µM (inactive) | GI50 [19]: > 100 µM | GI50 [20]: > 100 µM (inactive) | GI50 [21]: > 100 µM (inactive) | GI50 [22]: > 100 µM (inactive) | GI50 [23]: > 100 µM (inactive) | GI50 [24]: > 100 µM (inactive) | GI50 [52]: > 100 µM (inactive) | GI50 [25]: > 100 µM (inactive) | GI50 [26]: > 100 µM (inactive) | GI50 [53]: > 100 µM (inactive) | GI50 [27]: 95.7 µM (inactive) | GI50 [28]: > 100 µM (inactive) | GI50 [54]: > 100 µM (inactive) | GI50 [29]: > 100 µM (inactive) | GI50 [30]: > 100 µM (inactive) | GI50 [31]: > 100 µM (inactive) | GI50 [32]: > 100 µM (inactive) | GI50 [33]: > 100 µM (inactive) | GI50 [34]: > 100 µM (inactive) | GI50 [55]: > 100 µM (inactive) | GI50 [35]: > 100 µM (inactive) | GI50 [36]: > 100 µM (inactive) | GI50 [37]: > 100 µM (inactive) | GI50 [39]: > 100 µM (inactive) | GI50 [41]: > 100 µM (inactive) | GI50 [56]: > 100 µM (inactive) | GI50 [57]: > 100 µM (inactive) | GI50 [43]: > 100 µM (inactive) | GI50 [44]: > 100 µM (inactive) | GI50 [45]: > 100 µM (inactive) | GI50 [46]: > 100 µM (inactive) | GI50 [47]: > 100 µM (inactive) | GI50 [48]: > 100 µM (inactive) | GI50 [49]: > 100 µM (inactive)
